Literature values as cited in patent US5221745A, “Psychotropic piperidinylmethyl benzodioxans” (American Home Products Corp., priority 1992, dated 1993).

Experiments:
[1] = target: T1, serotonin 5-HT1A receptor (Rattus norvegicus, UniProt P19327); conditions: standard for anxiolytic activity
T1 construct: following the procedure of Hall et al., J. Neurochem; 44, 1685 (1985); from tissue
T1 sequence (P19327 1-422): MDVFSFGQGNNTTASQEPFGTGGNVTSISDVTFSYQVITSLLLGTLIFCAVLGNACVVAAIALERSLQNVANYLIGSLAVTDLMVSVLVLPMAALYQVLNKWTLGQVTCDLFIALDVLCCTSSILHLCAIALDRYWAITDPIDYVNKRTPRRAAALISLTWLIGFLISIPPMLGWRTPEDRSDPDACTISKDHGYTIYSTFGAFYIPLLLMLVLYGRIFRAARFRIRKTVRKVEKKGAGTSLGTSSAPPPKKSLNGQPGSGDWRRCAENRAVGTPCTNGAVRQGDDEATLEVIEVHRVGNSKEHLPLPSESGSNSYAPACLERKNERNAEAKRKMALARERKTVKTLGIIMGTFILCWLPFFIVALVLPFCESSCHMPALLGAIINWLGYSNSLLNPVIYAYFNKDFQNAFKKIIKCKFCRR

[2] = tested on: 5-HT1A receptor; conditions: Fozard et al. 1987

ligand character for 5-HT1A receptors (in words) [2] | Compound | affinity for the 5-HT1A serotonin receptor subtype (in words) [1]
 | O=C1CC2(CCCC2)CC(=O)N1CCCCN1CCN(c2ncccn2)CC1 [buspirone] | potent affinity
selective and stereospecific | O=C1CC2(CCCC2)CC(=O)N1CCCCNCC1COc2ccccc2O1 (centres unmarked) [MDL 72832, 8-[4-(1,4-benzodioxan-2-ylmethylamino)butyl]-8-azaspiro[4.5]decane-7,9-dione] | 
